From patent publication US10329316B2, “Phenylpropanoid compound and preparation method and use thereof” (QIANJIN PHARMACEUTICAL CO., LTD., priority 2016, dated 2019)
“Also recorded” adds a separate entry of the source.

What was measured:
Raw 264.7 cells = assay: Determination of cell vitality by MTT method; format: cell-based, mouse; conditions: 1.37 to 12.37 μg/ml, 2 h medicine, then LPS 30 μg/ml 24 h, FIG. 1
Protocol: (§1) Medicine was first dissolved in a small amount of DMSO, and then diluted to a certain concentration with DMEM, so that final concentration of DMSO was less than 1%.
(§2) Raw 264.7 mouse macrophages were incubated in DMEM medium containing 10% heat-inactivated fetal bovine serum (FBS), 10 U/mL penicillin sodium and 100 μg/ml streptomycin, and incubated in 37° C., 5% CO2 incubator.
Cell vitality was determined by MTT method. Cell suspension liquid was inoculated into a 96-well plate (1*104 holes/pore) to incubate for 24 hours and then synchronize for 24 hours. The cells were treated with different concentration of medicine for 2 hours, and then stimulated by LPS (30 μg/ml) for 24 hours. Original medium was abandoned, and MTT (0.5 mg/ml) was added into each hole for 4 hours. The medium was then abandoned and DMSO ([…]) was added into each hole. Absorbance was measured at 490 nm after shaking for 10 min.

hydroxyl radical (OH) = assay: Determination of OH concentration in LPS-stimulated Raw 264.7 cells (OH kit); format: cell-based, mouse; conditions: 4.13-12.38 μg/ml, LPS 30 μg/ml 24 h, dose-dependent
Protocol: (§3) Mouse IL-1-beta ELISA kit, batch number: 2014/06 (96T), Mouse IL-6 ELISA kit, batch number: 2014/06 (96T), Mouse tumor necrosis factor-alpha (TNF-α) ELISA kit, batch number: 2014/06 (96T), Mouse NO ELISA Kit Batch number: 2014/10 (96T), mouse hydroxyl radical (OH) ELISA detection kit, batch number: 2014/10 (96T).
(§4) Raw 264.7 cells were inoculated on a 96-well plate for 24 hours, then synchronized for 24 hours. The cells were treated with different concentration of medicine for 2 hours, and then stimulated with LPS (30 μg/ml) for 24 hours. Lastly, supernatant was collected and centrifuged for 5 minutes at 10,000 rpm. The supernatant was separated and stored at −80° C. for reserve. The concentration of NO was determined by mouse NO kit.
Sample prepared at 1.5 was used for OH factor determination. The concentration was determined by OH kit.

IL-1β = assay: Measurement of inflammatory factor IL-1β in LPS-stimulated Raw 264.7 cells (ELISA kit); format: cell-based, mouse; conditions: at various concentrations; LPS 30 μg/ml 24 h; p>0.05; FIG. 4
Protocol: as §3, §4
(§5) Sample prepared in at 1.5 was used for subsequent inflammatory factor determination. The amount of TNF-α, IL-1β, IL-6 produced by cells was measured by mouse TNF-α, IL-1β, and IL-6 kit.

NO = assay: Determination of NO concentration in LPS-stimulated Raw 264.7 cells (mouse NO kit); format: cell-based; conditions: 6.88±12.38 μg/ml (6.88 to 12.38 μg/mL), LPS 30 μg/ml 24 h, dose-dependent
Protocol: as §1, §2, §4

TNF-α = assay: Measurement of inflammatory factor TNF-α in LPS-stimulated Raw 264.7 cells (ELISA kit); format: cell-based, mouse; conditions: 6.88±12.38 μg/ml (6.88 to 12.38 μg/mL), LPS 30 μg/ml 24 h, p<0.05, dose-dependent, FIG. 3
Protocol: as §3, §4, §5

IL-6 = assay: Measurement of inflammatory factor IL-6 in LPS-stimulated Raw 264.7 cells (ELISA kit); format: cell-based, mouse; conditions: at various concentrations; LPS 30 μg/ml 24 h; p>0.05; FIG. 5
Protocol: as §3, §4, §5

effect on vitality of Raw 264.7 cells (Raw 264.7 cells): no significant effect
Structure (SMILES): O=C(CCO)Oc1cc(O)c(OC2OC(CO)C(O)C(O)C2O)c(O)c1 (stereo not drawn) [MM-125]
inhibition of the increase of OH concentration induced by LPS (hydroxyl radical (OH); FIG. 6): significantly inhibit; also recorded: significant inhibitory effects
inhibition of the increase of OH concentration induced by LPS (hydroxyl radical (OH); FIG. 6, listed as phenylpropanoid compound): significant effect on inhibiting
inhibition of production of IL-1β in Raw 264.7 cells (IL-1β): could not inhibit; also recorded: no obvious inhibitory effect
inhibition of the increase of NO concentration induced by LPS (NO; FIG. 2): significantly inhibit; also recorded: significant inhibitory effects
inhibition of the increase of NO concentration induced by LPS (NO; FIG. 2, listed as phenylpropanoid compound): significant effect on inhibiting
inhibition of production of TNF-α in Raw 264.7 cells (TNF-α): significantly inhibit; also recorded: certain level of inhibiting effects
inhibition of production of TNF-α in Raw 264.7 cells (TNF-α; listed as phenylpropanoid compound): significantly inhibit
inhibition of production of IL-6 in Raw 264.7 cells (IL-6): could not inhibit; also recorded: no obvious inhibitory effect
